Three compounds from EP2444396A1, “PHOTOPROTECTIVE COMPOSITION” (Apoteknos Para La Piel, S.L., priority 2009, dated 2010) can be followed below.

Where “and” joins values, the source holds several entries; their conditions need not be identical. Identical values can stand only once. Marks after values point to notes of the source that are not given here.

Data set [1] relates to inflammation induced by phorbol 12-myristate-13-acetate (PMA). The data set is described as follows: Topical anti-inflammatory activity: ear inflammation induced by PMA in mice. Format: in vivo. Details: RE / RE Average: unit not given here. Particulars: 4 hours. Here is the method: The topical anti-inflammatory activity of p-nitrolophine has been analyzed in this study since erythema is a inflammatory process. Specifically, the inhibition of inflammation induced by phorbol 12-myristate-13-acetate (PMA) was evaluated and compared with an anti-inflammatory product of reference (indometacin). 37 mice were divided into the following groups: positive control group (PMA 0.5 mg); negative control group (indometacin 0.5 mg); treated groups (0.5 mg and 1 mg of p-nitrolophine). All the solutions were prepared using acetone (ppa) as vehicle. 20 µL of solution of 25 mg/mL of phorbol 12-myristate-13-acetate (PMA) [Fluka cod 79346] (10 µL in each face) was administered in the right ear of each mouse. Immediately after administering the PMA, nothing more was administered into the positive control group; 20 µL of the solution of 25 mg/mL of indometacin was administered to the negative control group, and 20 µL of the solution of 25 or 50 mg/mL of 4-nitrolophine was administered in the same manner to the treated groups. Animals having no lesions or skin and ear irritation were used.
After 4 hours of post-treatment, the mice were sacrificed through cervical fracture and a portion of 6 mm in diameter was obtained from each ear with a hollow punch which was weight in precision analytical balance. The difference in weight (Δ) between the right ear (treated) and the left ear (non treated) for each animal and for each group were calculated. The percentage of inhibition (% inh) was estimated and calculated according to the following equation: % inh = 100(1-Δt/Δc) [formula] wherein Δt represents the difference in the treated groups and Δc the difference for the […].
In order to analyze the results, an one way ANOVA and Dunnet test for multiple comparison was used, values of P<0.05 were considered significant. A software, Graphpad Instat Version 3.06, was used for such purposes.

For data set [2], the target named is T1, ERβ (Homo sapiens, UniProt Q92731).
T1 construct: expressed in transfected cells; host or cells: HeLa (HELN-ERβ)
T1 sequence (Q92731 whole entry, species assumed): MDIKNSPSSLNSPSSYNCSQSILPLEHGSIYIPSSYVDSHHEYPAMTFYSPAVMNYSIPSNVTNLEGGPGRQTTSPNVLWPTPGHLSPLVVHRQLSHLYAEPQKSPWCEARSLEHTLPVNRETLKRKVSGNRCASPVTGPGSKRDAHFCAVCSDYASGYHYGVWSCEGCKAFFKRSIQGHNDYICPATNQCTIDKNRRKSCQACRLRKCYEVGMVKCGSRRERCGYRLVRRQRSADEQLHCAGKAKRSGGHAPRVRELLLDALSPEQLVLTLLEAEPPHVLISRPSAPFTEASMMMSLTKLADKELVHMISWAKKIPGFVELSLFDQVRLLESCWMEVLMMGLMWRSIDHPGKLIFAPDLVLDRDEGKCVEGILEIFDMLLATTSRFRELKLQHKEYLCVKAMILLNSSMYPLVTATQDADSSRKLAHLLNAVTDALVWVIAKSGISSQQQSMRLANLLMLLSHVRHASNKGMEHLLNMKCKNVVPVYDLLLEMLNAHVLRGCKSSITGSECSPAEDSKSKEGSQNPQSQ
As to the kind of experiment: Estrogenicity reporter gene bioassay (luciferase activity) in HELN-ERβ cells. Format: cell-based. The text has this:
Briefly, the transactivation bioassay (Reporter gene assay) used are based on the use of breast and uterine cancer cell lines transfected with different native or modified hormone receptors. The resulting cell lines further contain a reporter gene regulated by estrogens through the estrogen response element, the globin promoter and the luciferase gene.
HELN-ERα and HELN-ERβ cell lines were obtained by means of transfecting the HeLa uterine cancer cell line. In a first phase, said cells were transfected with an estrogen sensitive response element and then with the estrogen receptor alpha or beta (ERα or ERβ). The selection of clones resistant to geneticin and puromycin was performed using a concentration of 1 mg/mL and 0.5 mg/mL, respectively. The maintenance medium as well as the experimental medium of these 2 cell lines is DMEM F12 without phenol red supplemented with 6% of FBS (lacking of estrogens), 1% of penicillin / streptomycin, 1 mg/mL of geneticin and 0.5 µg/mL of puromycin.
The cells were seeded at a density of 5x10^4 cells per well in white opaque 96 well plates in 150 µL of experimental medium. After 8 hours, the compounds to be assayed (p-nitrolophine and estradiol) were prepared (concentrated 4x) in the same medium and were added to each well (50 µl). The cells were incubated for 16 hours at 37°C. At the end of the incubation, the medium was removed and replaced with fresh medium containing […] luciferin [at that concentration, luciferin diffuses into cell producing a luminescent signal which is stable after 5 minutes and for at least 2 hours]. The plates were then introduced in the luminometer to measure the luminescence for 2 seconds. A YicroBeta Trilux luminometer (EGG Wallac) apparatus was used to detect luciferase activity.
The assays were preformed in quadruple for each concentration (0.01-10 µM) in at least three independent experiments. […] The values of luciferase activity obtained were analyzed using the one-way ANOVA statistic test. The differences were considered significant when P was less than […] (P < 0.05).

The test system of data set [3] is MCF-7 breast cancer cell line. The data set is described as follows: E-Screen cell proliferation test. Format: cell-based, human. Particulars: MCF-7 cells, over control. The text has this:
The E-Screen proliferation test is based on the use of MCF-7 breast cancer cell line. The MCF-7 cells [which endogenously expressed the estrogen receptor alpha (ERα)], respond to the treatment with estradiol increasing its proliferative rate, synthesizing new proteins and transcribing certain specific genes. […] The test compares the number of cells or the cell proliferation obtained after 6 days of culture. The cells grow in culture medium supplemented with human serum lacking of estrogens, in the presence and/or absence of estradiol as well as of the chemical compounds suspected of having estrogenic activity. The E-Screen test was performed following the methodology previously described by Soto et al. ["An in culture bioassay to assess the estrogenicity of xenobiotics. […] Health Perspect. 103:844-850; 1995]. […] The assay was ended after 144 hours of subculture (exponential phase) after drawing out the medium and fixing the cells for the application of sulforhodamine-B technique. Finally, the cell growth for each experimental group is related to the growth obtained for the negative control (absence of hormone) and with respect to estradiol (positive control). Once the E-Screen test is performed, the maximum cell proliferation rate induced by the compound also known as proliferative effect (PE) was established by calculating the ratio existing between the maximum proliferation rate obtained for the compound and the proliferation rate of the negative control. The proliferation data corresponding with the successive dilutions of the compound were transformed after the application of the correction factor for the dilution of each experimental point, the arithmetic mean of the data obtained being calculated. Another parameter is the relative proliferative efficiency (RPE). […] In this assay, the estrogenicity E-Screen test commonly used to identify the hormonal activity of compounds interacting specifically with the estrogen receptor alpha (ERα), has been used. The assays were performed in triplicate for each concentration (range: 300-0.003 µg/ml) in at least three independent experiments.

In data set [4] the test system is MCF-7 breast cancer cell line. As to the kind of experiment: E-Screen cell proliferation test. Format: cell-based, human. Also on record: dose or concentration left out as unconfirmed. Particulars: 144 h.
In data set [5] the test system is Erythema induced by UVB radiation in mouse. As to the kind of experiment: Photoprotection: erythema induced by UVB radiation in mouse skin. Format: in vivo. Details: key to Erythema induced by UVB radiation in mouse: presence (+); absence (-). Particulars: individual animals No. 1-10; 0.5% gel topical, about 2.5 kJ/m^2 UVB, 24 hours after exposure. An excerpt:
The effect of p-nitrolophine and m-nitrolophine on erythema due to exposing the mouse skin to an irradiation source at maximum in the UVB region has been studied in these assays. The results obtained have been compared with the effect of 4-methylbenzylidene camphor (P5000) a substance considered as a UVB solar filter and with the effect of butyl methoxydibenzoylmethane (P1789) an UVA type filter, both products being commonly used in antisolar cosmetics.
35 male mice weighing more than 20 grams have been used. After receiving them, the animals were acclimated for 7 days at the place where the assays were preformed, they were being placed in a cage with controlled temperature (22°C), with relative humidity between 50% and 75%, replacing fresh filtered air approximately 10 times per hour and with 12 h light/dark cycles (7.00 - 19.00 light and from 19.00 to 7.00 dark). For this period and during the experimental period, the animals were fed ad libitum with standard diet for rodents and running water as drink.
The animals were randomly distributed into 4 experimental groups according to Table 7. The products to be tested were directly used, applying them in the form of a gel on an area of the skin such that each animal form its own control.
The test was performed following the method described by Winder et al. ["A study of Pharmacological influences on ultraviolet erythema in guinea pigs". Arch. Int Pharmacodyn, 116:261-292; 1958] and by other authors [Wendy et al. "The local antinociceptive and topical antiinflamatory effects of propyl gallate in rodents". Br. J. Pharmacol, 58:573 -581; 1976; Katiyar et al. "Protective Effects of Silymarin Against Photocarcinogenesis in a Mouse Skin Model". J Natl Cancer Inst 89:556-65; 1997] with slight modifications. The day […] the assay, as much hair as possible were removed from the animals by applying a layer of commercial hair-removing cream to remove all the trace of hair and to leave the skin of the back completely bare. The rest of the hair-removing cream were removed by means of washing and rinsing with running water and the animals were the returned to their corresponding cages where they remained until the following day.
On the day of the assay, the substances to be assayed were blindly applied on the back of the previously labelled animals following a random pattern (randomized). After applying the corresponding treatments, the animals were placed and pinned to the presentation platform of the equipment. The animals were then placed 8 cm from an ultraviolet light source of 4*40w with 313 nm of fundamental emission and a range comprised approximately between 290 and 350 nm and with an anti-UVC filter. The emission spectrum of said light source is depicted in Figure 1.
The exposure was maintained until all the animals have received an approximate total dose of 2.5 kJ/m^2. The dose of irradiation applied was determined by means of a ultraviolet light detector, the response curve of which is shown in Figure 2.
Twenty four hours after ending the exposure, the back of the animals was photographed and they were returned to their cages. The evaluation of erythema was performed by means of a positive/negative criterion, the percentage of protected animals being obtained. The statistic significance of the difference was evaluated by means of the non-parametric Fisher Test.

A short description of data set [6]: Absorption spectrum in methanol (195 - 400 nm). Format: physicochemical. Particulars: peak wavelength, 10 mg/ml. Here is the method: In order to determine the absorption spectrum, a solution of 10 mg/ml of methanol was prepared from each of the substances. The methanol in turn was used to adjust the zero absorbance in each of the wavelengths in the range of 195 - 400 nm.

As to `COc1ccc2c(c1)c(CC(=O)O)c(C)n2C(=O)c1ccc(Cl)cc1` [Indometacin, reference compound], the “% inhibition” value in data set [1] is 87.7** (q = 7.6) %. The “Average (Δ = RE - LE)” value in data set [1] (Dose (mg/ear) 0.5) was 0.61. In addition, the “LE Average” value in data set [1] (left ear (non treated), group average, 0.5 mg group) was determined as 6.7. In addition, in data set [1] (right ear (treated), group average, 0.5 mg), the “RE Average” value is listed as 7.4. Further, the LE in data set [1] (weight of 6 mm portion of left ear (non treated), individual mice, 0.5 mg group) was 6.2 and 6.4 and 6.9 (2×) and 6.7 (3×) and 7.6 and 5.5 and 7.2. For the same compound, the RE in data set [1] (weight of 6 mm portion of right ear (treated), individual mice, 0.5 mg) was 6.7 and 7.2 (2×) and 6.8 (2×) and 10 and 6.2 (2×) and 7.4 and 9.1.

`C[C@]12CC[C@@H]3c4ccc(O)cc4CC[C@H]3[C@@H]1CC[C@@H]2O` [E2, 17β-estradiol, reference compound] had an activity at 0.01 µM in data set [2] of 100%. The “maximum cell proliferation rate” value in data set [3] is “about 6.2 ± 0.3”. Moreover, the “Proliferative effect (PE) Mean” value in data set [4] was 6, 62*.

In the case of `Cc1ccc(C=C2C(=O)C3(C)CCC2C3(C)C)cc1` (centres unmarked) [P5000, 4-methylbenzylidene camphor, reference compound], the “Erythema induced by UVB radiation in mouse” value in data set [5] is reported as “-”. The maximum absorption in data set [6] was determined as 295 nm.
